Experimental data taken from the supplement of paper PMC10307832.

Legend:
Experiment in all cases: relative viability (nuclei count vs DMSO), 5 days (fraction); higher = more cells survive
Bleomycin + Bortezomib = compound: CC1=C(N=C(N=C1N)[C@H](CC(=O)N)NC[C@@H](C(=O)N)N)C(=O)N[C@@H]([C@H](C2=CN=CN2)OC3C(C(C(C(O3)CO)O)O)OC4C(C(C(C(O4)CO)O)OC(=O)N)O)C(=O)N[C@H](C)[C@H]([C@H](C)C(=O)N[C@@H]([C@@H](C)O)C(=O)NCCC5=NC(=CS5)C6=NC(=CS6)C(=O)NCCC[S+](C)C)O [Bleomycin] + CC(C)C[C@H](NC(=O)[C@H](Cc1ccccc1)NC(=O)c1cnccn1)B(O)O [Bortezomib] (partner 0.002 µM); conditions: main component drawn
Outline: (§1)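 Nuclei were stained with Hoechst during a one-step fixation (final 0.05% Triton X-100, 1% formaldehyde, 1 ug/ml Hoechst) carried out 5 days after dosing, then counted on 4× images. The cells, lung cancer lines in 1536-well plates, had been dosed by pin tool the day after seeding with one drug alone or a fixed anchor-drug dose plus five library-drug doses (not always all listed) in √10 steps. Relative viability is the nuclei count in treated wells divided by that in vehicle wells, and each value is the median of duplicate plates.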

Etoposide + Luminespib = compound: COc1cc([C@@H]2c3cc4c(cc3[C@@H](O[C@@H]3O[C@@H]5CO[C@@H](C)O[C@H]5[C@H](O)[C@H]3O)[C@H]3COC(=O)[C@H]23)OCO4)cc(OC)c1O [Etoposide] + CCNC(=O)c1noc(-c2cc(C(C)C)c(O)cc2O)c1-c1ccc(CN2CCOCC2)cc1 [Luminespib] (partner 0.01 µM)
Outline: as §1

Bleomycin + Decitabine = compound: CC1=C(N=C(N=C1N)[C@H](CC(=O)N)NC[C@@H](C(=O)N)N)C(=O)N[C@@H]([C@H](C2=CN=CN2)OC3C(C(C(C(O3)CO)O)O)OC4C(C(C(C(O4)CO)O)OC(=O)N)O)C(=O)N[C@H](C)[C@H]([C@H](C)C(=O)N[C@@H]([C@@H](C)O)C(=O)NCCC5=NC(=CS5)C6=NC(=CS6)C(=O)NCCC[S+](C)C)O [Bleomycin] + Nc1ncn([C@H]2C[C@H](O)[C@@H](CO)O2)c(=O)n1 [Decitabine] (partner 2 µM); conditions: main component drawn
Outline: as §1

Etoposide + Dasatinib = compound: COc1cc([C@@H]2c3cc4c(cc3[C@@H](O[C@@H]3O[C@@H]5CO[C@@H](C)O[C@H]5[C@H](O)[C@H]3O)[C@H]3COC(=O)[C@H]23)OCO4)cc(OC)c1O [Etoposide] + Cc1nc(Nc2ncc(C(=O)Nc3c(C)cccc3Cl)s2)cc(N2CCN(CCO)CC2)n1 [Dasatinib] (partner 0.075 µM)
Outline: as §1

| Cell Line | relative viability (Bleomycin + Bortezomib; first compound 0.01 µM) | relative viability (Bleomycin + Bortezomib; first compound 0.03162 µM) | relative viability (Bleomycin + Bortezomib; first compound 0.1 µM) | relative viability (Bleomycin + Bortezomib; first compound 0.3162 µM) | relative viability (Bleomycin + Bortezomib; first compound 1 µM) | relative viability (Etoposide + Luminespib; first compound 0.01 µM) | relative viability (Etoposide + Luminespib; first compound 0.03162 µM) | relative viability (Etoposide + Luminespib; first compound 0.1 µM) | relative viability (Etoposide + Luminespib; first compound 0.3162 µM) | relative viability (Etoposide + Luminespib; first compound 1 µM) | relative viability (Bleomycin + Decitabine; first compound 0.01 µM) | relative viability (Bleomycin + Decitabine; first compound 0.03162 µM) | relative viability (Bleomycin + Decitabine; first compound 0.1 µM) | relative viability (Bleomycin + Decitabine; first compound 0.3162 µM) | relative viability (Bleomycin + Decitabine; first compound 1 µM) | relative viability (Etoposide + Dasatinib; first compound 0.01 µM) | relative viability (Etoposide + Dasatinib; first compound 0.03162 µM) | relative viability (Etoposide + Dasatinib; first compound 0.1 µM) | relative viability (Etoposide + Dasatinib; first compound 0.3162 µM) | relative viability (Etoposide + Dasatinib; first compound 1 µM) |
| --- | --- | --- | --- | --- | --- | --- | --- | --- | --- | --- | --- | --- | --- | --- | --- | --- | --- | --- | --- | --- |
| HCC-44 | 0.544 | 0.333 | 0.225 | 0.153 | 0.145 | 1.03 | 0.84 | 0.774 | 0.411 | 0.279 | 0.773 | 0.795 | 0.693 | 0.396 | 0.407 | – | – | – | – | – |
| HCC-78 | 0.426 | 0.372 | 0.458 | 0.29 | 0.31 | – | – | – | – | – | 0.624 | 0.702 | 0.639 | 0.645 | 0.423 | 0.435 | 0.39 | 0.33 | 0.334 | 0.152 |
| HCC-366 | 0.736 | 0.34 | 0.293 | 0.0464 | 0.0446 | – | – | – | – | – | 0.242 | 0.26 | 0.132 | 0.069 | 0.0541 | 0.644 | 0.774 | 0.36 | 0.178 | 0.0448 |
| HCC-827 | 0.948 | 0.918 | 0.9 | 0.464 | 0.357 | 0.283 | 0.795 | 0.204 | 0.315 | 0.175 | 0.304 | – | 0.287 | 0.249 | 0.198 | 0.243 | 0.298 | 0.177 | 0.279 | 0.188 |
| HOP-62 | 0.359 | 0.189 | 0.0755 | 0.113 | 0.072 | 0.855 | 0.977 | 0.866 | 0.638 | 0.307 | 0.157 | 0.197 | 0.137 | 0.154 | 0.118 | 0.584 | 0.676 | 0.492 | 0.621 | 0.363 |
| IA-LM | 0.493 | 0.746 | 0.676 | 0.339 | 0.269 | – | – | – | – | – | – | – | – | – | – | – | – | – | – | – |
| LK-2 | – | – | – | – | – | 0.206 | 0.181 | 0.154 | 0.195 | 0.159 | 0.22 | 0.241 | 0.184 | 0.121 | 0.142 | 0.248 | 0.297 | 0.275 | 0.301 | 0.181 |
| NCI-H358 | – | – | – | – | – | 0.243 | 0.327 | 0.209 | 0.179 | 0.095 | 0.198 | 0.271 | 0.189 | 0.172 | 0.152 | 0.166 | 0.179 | 0.112 | 0.149 | 0.106 |
| NCI-H522 | – | – | – | – | – | 1.03 | 0.988 | 0.866 | 0.907 | 0.601 | 0.736 | 0.777 | 0.608 | 0.405 | 0.399 | 0.861 | 0.883 | 0.805 | 0.895 | 0.874 |
| NCI-H1299 | 0.963 | 0.994 | 0.95 | 0.435 | 0.412 | – | – | – | – | – | – | – | – | – | – | – | – | – | – | – |
